Measurements from patent US20190023658A1, “SUBSTITUTED 2-DIFLUOROMETHYL-NICOTIN(THIO)CARBOXANILIDE DERIVATIVES AND THEIR USE AS FUNGICIDES” (Bayer CropScience Aktiengesellschaft, priority 2015, published 2019).

Columns and labels:
[1] = Log P by HPLC on reversed phase columns (EEC directive 79/831 Annex V.A8); type: physicochemical; details: [a] LC-UV, acidic range, 0.1% formic acid in water and acetonitrile as eluent
Description: Measurement of Log P values was performed according to EEC directive 79/831 Annex V.A8 by HPLC (High Performance Liquid Chromatography) on reversed phase columns with the following methods: [a] Log P value is determined by measurement of LC-UV, in an acidic range, with 0.1% formic acid in water and acetonitrile as eluent (linear gradient from 10% acetonitrile to 95% acetonitrile). [b] Log P value is determined by measurement of LC-UV, in a neutral range, with 0.001 molar ammonium acetate solution in water and acetonitrile as eluent (linear gradient from 10% acetonitrile to 95% acetonitrile). Calibration was done with straight-chain alkan2-ones (with 3 to 16 carbon atoms) with known Log P values (measurement of Log P values using retention times with linear interpolation between successive alkanones). Lambda-max-values were determined using UV-spectra from 200 nm to 400 nm and the peak values of the chromatographic signals.

Puccinia recondita = assay: In vivo preventive test on Puccinia recondita (brown rust on wheat); details: 10 ppm of active ingredient; wheat plants, preventive spray, evaluated 11 days after inoculation
Description: (§1) Example: In Vivo Preventive Test on Puccinia recondita (Brown Rust on Wheat) [table] The active ingredients are made soluble and homogenized in a mixture of Dimethyl sulfoxide/Acetone/Tween® 80 and then diluted in water to the desired concentration. The young plants of wheat are treated by spraying the active ingredient prepared as described above. Control plants are treated only with an aqueous solution of Acetone/Dimethyl sulfoxide/Tween® 80. After 24 hours, the plants are contaminated by spraying the leaves with an aqueous suspension of Puccinia recondita spores. The contaminated wheat plants are incubated for 24 hours at 20° C. and at 100% relative humidity and then for 10 days at 20° C. and at 70-80% relative humidity. The test is evaluated 11 days after the inoculation. 0% means an efficacy which corresponds to that of the control plants while an efficacy of 100% means that no disease is observed.

Uromyces appendiculatus = assay: In vivo preventive test on Uromyces appendiculatus (bean rust); details: 500 ppm of active ingredient; bean plants, preventive spray, evaluated 11 days after inoculation
Description: as §1, with “Uromyces appendiculatus (Bean Rust)” for “Puccinia recondita (Brown Rust on Wheat)”, “bean” for “wheat”, “Uromyces appendiculatus” for “Puccinia recondita”

Structure (SMILES) | LogP [1] | efficacy (Puccinia recondita) | efficacy (Uromyces appendiculatus)
O=C(Nc1ccccc1Oc1cccc(Cl)c1)c1cccnc1C(F)F [Example I-06] | 3.29^[a] | at least 70% | –
O=C(Nc1ccc(F)cc1-c1ccc(Cl)c(Cl)c1)c1c(C(F)F)ccnc1C(F)F [Example I-31] | 3.96^[a] | – | at least 70%
